Assay results from patent EP4810492A1, “NMT INHIBITOR, PREPARATION METHOD THEREFOR, AND USE THEREOF” (Nanjing Synnocare Pharmaceutical Technology Co., Ltd., priority 2023, dated 2025).
Like-named read-outs stand apart in the source and are kept apart here.

Experiments:
NMT1 enzyme = target: T1, NMT1 enzyme (Homo sapiens, UniProt P30419); assay: Inhibitory activity on NMT1 enzyme catalysis (fluorescence intensity assay); format: biochemical
T1 sequence (P30419 1-496): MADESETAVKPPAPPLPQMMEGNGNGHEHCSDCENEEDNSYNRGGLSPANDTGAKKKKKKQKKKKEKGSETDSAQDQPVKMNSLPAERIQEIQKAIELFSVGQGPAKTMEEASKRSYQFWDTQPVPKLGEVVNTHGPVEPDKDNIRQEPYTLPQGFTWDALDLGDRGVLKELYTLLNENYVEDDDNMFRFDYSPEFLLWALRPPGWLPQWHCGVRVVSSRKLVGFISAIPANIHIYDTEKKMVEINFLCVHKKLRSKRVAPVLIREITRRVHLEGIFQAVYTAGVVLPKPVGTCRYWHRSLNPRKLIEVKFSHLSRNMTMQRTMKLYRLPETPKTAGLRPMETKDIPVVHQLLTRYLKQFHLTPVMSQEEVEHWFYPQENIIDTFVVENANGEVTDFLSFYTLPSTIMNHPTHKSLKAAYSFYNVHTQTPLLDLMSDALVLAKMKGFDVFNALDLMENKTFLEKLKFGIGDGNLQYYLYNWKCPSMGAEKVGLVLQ
Method: This study evaluated the ability of the compounds of the invention to inhibit NMT1 catalytic activity in vitro. […] The final concentration of the NMT1 enzyme was 6 nM, the final concentration of CPM (Reactive thiol fluorescence probe, Invitrogen, D346) was 1 µM, the final concentration of HSPP60 SRC was 20 µM, and the final concentration of DMSO was 0.5%.
Compounds were dissolved in DMSO to obtain 10 mM stock solutions. Dose-response solutions were prepared with a top endpoint compound concentration of 3 mM, followed by three-fold serial dilutions in DMSO, totaling ten data points. […] Then, 2.5 µL of the NMT1 enzyme working solution was added to the 384-well assay plate, followed by incubation at 25 °C for 10 minutes. Subsequently, 5 µL of the CPM and myristoyl-CoA working solution was added, the plate was centrifuged at 1000 rpm for 1 minute, and then 2.5 µL of the HSPP60 SRC working solution was added to initiate the reaction. The reaction was incubated at 25 °C for 45 minutes.
The IC50 curve of the compounds was fitted using the software XLfit 5.5.0 according to the nonlinear regression equation.

MV-4-11 cells = assay: Anti-proliferative activity against MV-4-11 cells (cell viability chemiluminescence); format: cell-based; conditions: MV-4-11 human monocytic leukemia cells, three days of exposure
Method: This study utilized a cell proliferation assay to analyze the cytotoxicity of MV-4-11 human monocytic leukemia cells after three days of exposure to NMT1 inhibitors. The MV-4-11 cell line was purchased from Nanjing Cobuilder Biotechnology Co., Ltd., and cultured in IMDM medium (Viva cell) in an incubator (Thermo) at 37 °C with 5% CO2. In this experiment, NMT1 inhibitors were dissolved in DMSO to obtain 600 µM stock solutions. Dose-response solutions were prepared with a top endpoint compound concentration of 3 µM, followed by three-fold serial dilutions in DMSO, totaling eight data points. The final concentration of DMSO was 0.5%.
MV-4-11 cells were seeded into a white 96-well plate, 80 µL of cell suspension per well, containing 6000 MV-4-11 cells. The cell plate was placed in the CO2 incubator for overnight culture. Then, 20 µL of NMT1 inhibitor solutions at different concentrations were added to the wells. The 96-well plate was placed back into the incubator for three days. Another cell plate was prepared, and the signal was read on the day of drug addition to serve as the maximum value (Max value in the equation below) for data analysis. To this cell plate, 25 µL of cell viability chemiluminescence detection reagent was added per well, followed by incubation at room temperature for 10 minutes to stabilize the luminescence signal. A multi-label analyzer was used for reading.
The raw data were converted into inhibition rates using the equation (Sample - Min) / (Max - Min) * 100%. The IC50 values were then determined by fitting a four-parameter curve (using the "log(inhibitor) vs. response - Variable slope" model in GraphPad Prism). Min: wells treated with 0.5% DMSO; Max: Day 0 wells. Table 1 provides the inhibitory activity of the compounds of the invention on MV-4-11 cell proliferation. Table 1: Compound Inhibitory Activity against NMT1 Enzyme (IC50) and Anti-proliferative Activity against MV-4-11 Cell line (IC50)

[1] = 6 nM NMT1 enzyme, 1.25 µM myristoyl-CoA, 20 µM HSPP60 SRC peptide, 45 minutes at 25 °C, read-out: NMT1 (IC50)

Row | Compound | IC50 (NMT1 enzyme; [1]) | IC50 (MV-4-11 cells; MV4-11, 72 h) | further results
1 | Cc1c(NS(=O)(=O)c2c(Cl)cc(-c3ccc4sc5c(c4c3)CNCC5)cc2Cl)c(C2CC2)nn1C [Compound 4] | 3.64 nM | 25.8 nM | –
2 | Cc1c(NS(=O)(=O)c2c(Cl)cc(-c3ccc4sc5c(c4c3)CNCC5)cc2Cl)c(CO)nn1C [Compound 14] | 7.89 nM | 145 nM | –
3 | COCc1nn(C)c(C)c1NS(=O)(=O)c1c(Cl)cc(-c2ccc3sc4c(c3c2)CNCC4)cc1Cl [Compound 15] | – | – | IC50 (NMT1 enzyme): 4.73 nM; IC50 (MV-4-11 cells; Homo sapiens, MV4-11, 72 h): 78.6 nM
4 | Cc1c(NS(=O)(=O)c2c(Cl)cc(-c3ccc4sc5c(c4c3)CNCC5)cc2Cl)c(CF)nn1C [Compound 16] | 4.67 nM | 58.5 nM | –
5 | CCc1nn(C)c(C)c1NS(=O)(=O)c1c(Cl)cc(-c2ccc3oc4c(c3c2)CNCC4)cc1Cl [Compound 46] | 3.96 nM | 18.8 nM | –
6 | Cc1nn(C)c(C)c1NS(=O)(=O)c1c(Cl)cc(-c2ccc3oc4c(c3c2)CNCC4)cc1Cl [Compound 47] | 4.17 nM | 23.1 nM | –
7 | Cc1c(NS(=O)(=O)c2c(Cl)cc(-c3ccn4nc5c(c4c3)CNCC5)cc2Cl)c(CC(C)C)nn1C [Compound 48] | 4.2 nM | 36.7 nM | –
8 | CCc1nn(C)c(C)c1NS(=O)(=O)c1c(Cl)cc(-c2ccn3nc4c(c3c2)CNCC4)cc1Cl [Compound 49] | 3.64 nM | 16.8 nM | –
9 | Cc1nn(C)c(C)c1NS(=O)(=O)c1c(Cl)cc(-c2ccn3nc4c(c3c2)CNCC4)cc1Cl [Compound 50] | 3.79 nM | 21.9 nM | –
10 | CCc1nn(C)c(C)c1NS(=O)(=O)c1c(Cl)cc(-c2ccc3sc4c(c3c2)CCNC4)cc1Cl [Compound 55] | 3.97 nM | 26.2 nM | –
11 | Cc1nn(C)c(C)c1NS(=O)(=O)c1c(Cl)cc(-c2ccc3sc4c(c3c2)CCNC4)cc1Cl [Compound 56] | 4.21 nM | 29.7 nM | –
12 | Cc1c(NS(=O)(=O)c2c(Cl)cc(-c3ccc4c(c3)N3CCNC[C@H]3CO4)cc2Cl)c(CC(C)C)nn1C [Compound 57] | – | – | IC50 (NMT1 enzyme): 8.76 nM; IC50 (MV-4-11 cells; Homo sapiens, MV4-11, 72 h): 144 nM
13 | Cc1c(NS(=O)(=O)c2c(Cl)cc(-c3ccc4c(c3)N3CCNC[C@@H]3CO4)cc2Cl)c(CC(C)C)nn1C [Compound 60] | – | – | IC50 (NMT1 enzyme): 7.95 nM; IC50 (MV-4-11 cells; Homo sapiens, MV4-11, 72 h): 152 nM
14 | Cc1c(NS(=O)(=O)c2c(Cl)cc(N3CCc4sc5c(c4C3)CNCC5)cc2Cl)c(CC(C)C)nn1C [Compound 63, 2,6-dichloro-4-(3,4,6,7,8,9-hexahydrothieno[3,2-c:4,5-c']dipyridine-2(1H)-yl)-N-(3-isobutyl-1,5-dimethyl-1H-pyrazol-4-yl)benzenesulfonamide] | 3.35 nM | 16.7 nM | –
15 | CCc1nn(C)c(C)c1NS(=O)(=O)c1c(Cl)cc(N2CCc3sc4c(c3C2)CNCC4)cc1Cl [Compound 64] | 2.97 nM | 7.36 nM | –
16 | Cc1nn(C)c(C)c1NS(=O)(=O)c1c(Cl)cc(N2CCc3sc4c(c3C2)CNCC4)cc1Cl [Compound 65] | 3.51 nM | 21.1 nM | –
17 | Cc1c(NS(=O)(=O)c2c(Cl)cc(N3CCn4nc5c(c4C3)CNCC5)cc2Cl)c(CC(C)C)nn1C [Compound 69] | 3.75 nM | 21.9 nM | –
18 | CCc1nn(C)c(C)c1NS(=O)(=O)c1c(Cl)cc(N2CCn3nc4c(c3C2)CNCC4)cc1Cl [Compound 70] | 3.46 nM | 15.2 nM | –
19 | Cc1nn(C)c(C)c1NS(=O)(=O)c1c(Cl)cc(N2CCn3nc4c(c3C2)CNCC4)cc1Cl [Compound 71] | 3.79 nM | 25.9 nM | –
20 | Cc1c(NS(=O)(=O)c2c(Cl)cc(-c3ccc4sc5c(c4c3)CCNC5)cc2Cl)c(CC2CC2)nn1C [Compound B25] | – | – | IC50 (NMT1 enzyme; read-out: NMT1 (IC50), 6 nM NMT1 enzyme, 1.25 µM myristoyl-CoA, 20 µM HSPP60 SRC peptide, 45 minutes at 25 °C): 2.62 nM; IC50 (MV-4-11 cells; Homo sapiens, MV4-11, 72 h): 10.4 nM
21 | Cc1c(NS(=O)(=O)c2ccc(-c3ccc4sc5c(c4c3)CNCC5)cc2)c(CC(F)(F)F)nn1C [Compound B40] | – | – | IC50 (NMT1 enzyme): 2.7 nM; IC50 (MV-4-11 cells; Homo sapiens, MV4-11, 72 h): 11.3 nM
22 | Cc1c(NS(=O)(=O)c2c(Cl)cc(-c3ccnc(N4CCNCC4)c3)cc2Cl)c(CC(C)C)nn1C [PCLX-001, reference compound] | – | – | IC50 (MV-4-11 cells; Homo sapiens, MV4-11, 72 h): 75.3 nM; IC50 (MV-4-11 cells): 74.3 nM

Now from value to compound, other results behind:

Row | IC50 (NMT1 enzyme; [1]) | IC50 (MV-4-11 cells; MV4-11, 72 h) | Compound | further results
23 | 2.67 nM | 14.4 nM | Cc1nn(C)c(C)c1NS(=O)(=O)c1ccc(-c2ccc3sc4c(c3c2)CNCC4)cc1Cl [Compound B1] | –
24 | 3.1 nM | 21.9 nM | Cc1nn(C)c(C)c1NS(=O)(=O)c1ccc(-c2ccc3oc4c(c3c2)CNCC4)cc1Cl [Compound B3] | –
25 | 2.94 nM | 15.8 nM | Cc1nn(C)c(C)c1NS(=O)(=O)c1ccc(-c2ccc3sc4c(c3c2)CNCC4)cc1 [Compound B4] | –
26 | 3.76 nM | 23.3 nM | Cc1nn(C)c(C)c1NS(=O)(=O)c1ccc(-c2ccc3oc4c(c3c2)CNCC4)cc1 [Compound B6] | –
27 | 2.93 nM | 9.82 nM | CCc1nn(C)c(C)c1NS(=O)(=O)c1ccc(-c2ccc3sc4c(c3c2)CNCC4)cc1Cl [Compound B7] | –
28 | 2.52 nM | 13.5 nM | CCc1nn(C)c(C)c1NS(=O)(=O)c1ccc(-c2ccc3oc4c(c3c2)CNCC4)cc1Cl [Compound B9] | –
29 | 2.39 nM | 10.1 nM | CCc1nn(C)c(C)c1NS(=O)(=O)c1ccc(-c2ccc3sc4c(c3c2)CNCC4)cc1 [Compound B10] | –
30 | 2.98 nM | 17.8 nM | CCc1nn(C)c(C)c1NS(=O)(=O)c1ccc(-c2ccc3oc4c(c3c2)CNCC4)cc1 [Compound B12] | –
31 | 3.06 nM | 25.9 nM | Cc1c(NS(=O)(=O)c2ccc(-c3ccc4oc5c(c4c3)CNCC5)cc2Cl)c(CC(C)C)nn1C [Compound B14] | –
32 | 3.84 nM | 32.4 nM | Cc1c(NS(=O)(=O)c2ccc(-c3ccc4oc5c(c4c3)CNCC5)cc2)c(CC(C)C)nn1C [Compound B16] | –
33 | 3.07 nM | 21.7 nM | Cc1c(NS(=O)(=O)c2ccc(-c3ccc4sc5c(c4c3)CNCC5)cc2Cl)c(CC#N)nn1C [Compound B19] | –
34 | 3.56 nM | 34.9 nM | Cc1c(NS(=O)(=O)c2ccc(-c3ccc4sc5c(c4c3)CCNC5)cc2Cl)c(CC#N)nn1C [Compound B20] | –
35 | 2.08 nM | 9.68 nM | Cc1c(NS(=O)(=O)c2ccc(-c3ccc4sc5c(c4c3)CNCC5)cc2Cl)c(CC2CC2)nn1C [Compound B27] | –
36 | 3.6 nM | 17.4 nM | Cc1c(NS(=O)(=O)c2ccc(-c3ccc4oc5c(c4c3)CNCC5)cc2Cl)c(CC2CC2)nn1C [Compound B29] | –
37 | 2.59 nM | 12.3 nM | Cc1c(NS(=O)(=O)c2ccc(-c3ccc4sc5c(c4c3)CNCC5)cc2)c(CC2CC2)nn1C [Compound B30] | –
38 | 5.03 nM | 61.8 nM | Cc1c(NS(=O)(=O)c2c(Cl)cc(-c3ccc4oc5c(c4c3)CNCC5)cc2Cl)c(CC(F)(F)F)nn1C [Compound B34] | –
39 | 2.75 nM | 26.2 nM | Cc1c(NS(=O)(=O)c2c(Cl)cc(N3CCc4oc5c(c4C3)CNCC5)cc2Cl)c(CC(F)(F)F)nn1C [Compound B36] | –
40 | 2.21 nM | 16.6 nM | Cc1c(NS(=O)(=O)c2ccc(-c3ccc4sc5c(c4c3)CNCC5)cc2Cl)c(CC(F)(F)F)nn1C [Compound B37] | –
41 | – | 62.8 nM | Cc1c(NS(=O)(=O)c2ccc(-c3ccc4sc5c(c4c3)CCNC5)cc2Cl)c(CC(F)F)nn1C [Compound B60] | –
